{
  "source": "patent US6329344A",
  "about": "“Derivatives of monosaccharides as cell adhesion inhibitors” (Ranbaxy Laboratories Limited, priority 1998, dated 2001)",
  "system": "murine contact hypersensitivity response",
  "experiment": "Mouse Ear Swelling Test (MEST), DNFB contact hypersensitivity",
  "format": "in vivo, Swiss albino mice",
  "conditions": "ear thickness 24 hours after challenge; for ED30 / ED40: Mus musculus, 24 h; for ED30: read-out: EC30 (ED30, dose for 30% inhibition of ear swelling); for ED40: read-out: EC40 (ED40, dose for 40% inhibition of ear swelling)",
  "source_text": "The in vitro cell adhesion assay was used to measure the effect of a test compound on adhesion of human T cell line (Jurkat J6) on surfaces coated with VCAM-1. The MEST assesses the ability of the experimental compounds to inhibit the delayed-type hypersensitivity response of sensitized mice against a potent allergen, 1,4-Dinitrofluoro benzene. These two assays are appropriate for screening compounds for two different activities. The cell adhesion assay determines the effect of compounds on the interaction of VLA4 molecules expressed on the surface of Jurkat cells with its counter-receptor, VCAM-1, immobilized on microtitre plate surface. Conversely, the MEST determines the potency of compounds to inhibit the murine contact hypersensitivity response induced by exposing mice to the potent allergen 1,4-Dinitrofluoro benzene. The Chisolm et al method was used in this respect (Chisolm et al, Eur. J. Immunology 1993;23:682).\nWe tested the efficacy of compounds synthesized in this invention to inhibit the act hypersensitivity in Swiss mice as follows:\n20 to 25 gm female Swiss albino mice (animals procured from National Institute of Immunology, New Delhi, India and maintained in our Experimental Animal Facility) were anesthetized with anesthetic ether (Sisco Research Laboratories Ltd., India). A 2 cm^2 patch of dorsal skin was shaved using a hair clipper. The exposed skin was then dermabraded using No. 100 sandpaper gently. 25 μL freshly prepared 0.5% 1,4-Dinitrofluoro benzene in 4:1 (v/v) acetone:olive oil solution was then topically applied onto the dermabraded skin to encourage a mild inflammation reaction. Twenty-four hours after the initial sensitization, the mice were again sensitized with 25 μL freshly prepared 0.5% 1,4-Dinitrofluor benzene (DNFB) in 4:1 (v/v) acetone:olive oil solution on the same dermabraded site as before. The second sensitization was performed while restraining the non-anesthetized, conscious mouse.\n2. Administration of Compound\nOn day 5, compounds were dissolved in an aqueous solvent (pyrogen-free water, alkaline water, or ethanol) and further diluted in pyrogen-free water to prepare appropriate doses. Solutions were administered by intravenous, subcutaneous or oral route.\n3. Challenge and Measurement of Ear Thickness\nTwo hours following administration of the compounds, the animals were physically restrained and painted with 25 μL of freshly prepared 0.5% DNFB in 4:1 (v/v) acetone:olive oil solution on the right ear. The thickness of the right ear was measured using a Series 300 Odimeter (Dyer Gauge Inc, USA) at the time of challenge (0 hr), 4 hours and 24 hours after challenge while physically restraining the non-anesthetized mice. In a separate experiment, it was ascertained that 4:1 (v/v) acetone:olive oil vehicle has no effect on ear thickness.\n4. Determination of Effective Concentration of the Compounds\nInhibition of the ear swelling was judged by comparison of treated groups with their negative control groups. Percent inhibition was calculated as: [formula]\nSTEST =Mean ear thickness in test group at 24 hours after challenge\nSTEST-zero =Mean ear thickness in test group at zero hours after challenge\nSNC =Mean ear thickness in negative control group at 24 hours after challenge\nSNC-zero =Mean ear thickness in negative control group at zero hours after challenge\nThe percentage inhibition of swelling obtained by the above calculation was plotted against log dose using the Graph Pad Prizm software and, from this plot, the log dose corresponding to 30% inhibition (log ED30) and 40% (log ED40) inhibition was determined.\nAqueous solutions of appropriate doses (1 μg/kg to 100 mg/kg) were administered by intravenous route 2 hrs before challenge and their effect on ear thickness was measured. Concentrations inhibiting ear swelling by 30% and 40% were determined and expressed as amount (ng, μg or mg) per Kg body weight.",
  "key": {"[1]": {"conditions": "I.V., amount per Kg body weight"}, "[2]": {"conditions": "S.C., amount per Kg body weight"}},
  "note": "Where two headings read alike, the source gives them in different places.",
  "data": [
    {"smiles": "CCCCCCCCCCCCO[C@@H]1[C@H]2OC(C)(C)O[C@H]2O[C@@H]1CNC(=O)Nc1ccc(CC(=O)O)cc1", "note": "[Compound 53, 1,2-O-isopropylidene-3-O-dodecyl-5-deoxy-5-N-{[4-(2-hydroxy-2-oxoethyl)phenyl]aminocarbonylamino}-α,D-xylofuranose]", "values": [
      {"measurement": "ED30", "setting": "[1]", "result": 0.01, "unit": "mg/kg"},
      {"measurement": "ED40", "setting": "[1]", "result": 0.07, "unit": "mg/kg"},
      {"measurement": "ED30", "setting": "Oral", "result": 0.001, "unit": "mg/kg"},
      {"measurement": "ED30", "setting": "[2]", "result": 0.0005, "unit": "mg/kg"},
      {"measurement": "ED40", "setting": "[2]", "result": 0.01, "unit": "mg/kg"}
    ]},
    {"smiles": "CCCCCCCCCCCCO[C@H]1[C@H]2OC(C)(C)O[C@H]2O[C@@H]1CNC(=O)Nc1ccc(CC(=O)O)cc1", "note": "[Compound 76, 1,2-O-isopropylidene-3-O-dodecyl-5-deoxy-5-N-{[4-(2-hydroxy-2-oxoethyl)phenyl]aminocarbonylamino}-α,D-ribofuranose]", "values": [
      {"measurement": "ED30", "setting": "Oral", "result": 0.00029, "unit": "mg/kg"},
      {"measurement": "ED40", "setting": "Oral", "result": 0.0813, "unit": "mg/kg"}
    ]},
    {"smiles": "CC(C)C[C@H](NC(=O)[C@@]12O[C@H]3COC(C)(C)O[C@H]3[C@@H]1OC(C)(C)O2)C(=O)N[C@@H](CC(=O)O)C(=O)N[C@H](C(=O)N1CCC[C@H]1C(=O)O)C(C)C", "note": "[Compound 122, 2,3; 4,6-Di-O-isopropylidene-1-carbonyl-L-Leucyl-α,L-Aspartyl-L-Valyl-LProline-α,L-xylo-2-hexulofuranosonic acid]", "values": [
      {"measurement": "EC30 (ED30, dose for 30% inhibition of ear swelling)", "setting": "[1]", "result": 8, "unit": "mg/kg"},
      {"measurement": "ED30", "setting": "[1]", "result": 12, "unit": "mg/kg"}
    ]}
  ]
}
